Laboratory results: patent publication US7696246B2 (Ligand Pharmaceuticals Incorporated, priority 1999, dated 2010)
Read-outs that look alike come from different tables or passages of the source.

Legend:
human AR [1] = molecular target: T1, human AR (Homo sapiens, UniProt P10275); assay: Co-transfection assay, AR antagonist activity (CV-1 cells, in presence of DHT); type: cell-based; conditions: for IC50: read-out: AR Antagonist CV-1 Cells Potency
T1 sequence (P10275 1-920): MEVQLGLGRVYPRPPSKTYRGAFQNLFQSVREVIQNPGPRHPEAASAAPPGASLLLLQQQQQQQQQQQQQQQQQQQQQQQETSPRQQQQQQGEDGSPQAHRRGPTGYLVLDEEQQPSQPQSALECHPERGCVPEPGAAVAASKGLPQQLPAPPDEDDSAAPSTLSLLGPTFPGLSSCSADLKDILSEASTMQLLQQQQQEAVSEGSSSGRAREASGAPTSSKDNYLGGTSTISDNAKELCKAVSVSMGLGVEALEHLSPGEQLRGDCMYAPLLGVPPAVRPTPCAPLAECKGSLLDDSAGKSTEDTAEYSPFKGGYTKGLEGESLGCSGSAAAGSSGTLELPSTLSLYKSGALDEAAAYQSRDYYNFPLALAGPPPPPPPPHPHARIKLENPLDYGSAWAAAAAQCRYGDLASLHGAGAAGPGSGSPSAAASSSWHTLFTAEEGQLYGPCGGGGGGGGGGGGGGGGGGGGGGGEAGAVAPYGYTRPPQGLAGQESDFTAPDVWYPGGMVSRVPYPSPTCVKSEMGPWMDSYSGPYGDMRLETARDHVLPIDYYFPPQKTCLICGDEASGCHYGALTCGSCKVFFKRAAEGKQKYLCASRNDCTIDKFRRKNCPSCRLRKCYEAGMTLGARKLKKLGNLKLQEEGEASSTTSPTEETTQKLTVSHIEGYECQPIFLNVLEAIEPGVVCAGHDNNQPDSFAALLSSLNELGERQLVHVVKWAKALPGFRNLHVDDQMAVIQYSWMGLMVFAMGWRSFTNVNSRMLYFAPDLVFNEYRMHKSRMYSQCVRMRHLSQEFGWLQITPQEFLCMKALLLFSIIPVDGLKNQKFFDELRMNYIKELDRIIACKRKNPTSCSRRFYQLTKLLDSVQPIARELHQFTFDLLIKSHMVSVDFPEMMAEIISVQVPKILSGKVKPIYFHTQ

human AR [2] = molecular target: T1, human AR; assay: Co-transfection assay, AR agonist activity (CV-1 cells, MTV-LUC reporter); type: cell-based; conditions: for EC50: agonist potency EC50
human AR [3] = molecular target: T1, human AR; assay: AR whole cell competitive binding assay (COS-1 cells, 3H-DHT); conditions: 1 nM 3H-DHT, Cheng-Prusoff
Method: AR Binding: For the whole cell binding assay, COS-1 cells in 96-well microtiter plates containing DMEM-10% FBS were transfected as described above with the following plasmid DNA: pRShAR (2 ng/well), pRS-β-Gal (50 ng/well) and pGEM (48 ngcwell). Six hours after transfection, media was removed, the cells were washed with PBS and fresh media was added. The next day, the media was changed to DMEM-serum free to remove any endogenous ligand that might be complexed with the receptor in the cells.
Three replicates were used for each sample. […] The remaining media was removed, the cells were washed three times with PBS to remove unbound ligand, and cells were lysed with a Triton X-100-based buffer.
For the saturation analyses, the difference between the total binding and the nonspecific binding, normalized by the β-Gal rate, was defined as specific binding. […] The Ki values were determined by application of the Cheng-Prusoff equation to the IC50 values, where:
After correcting for non-specific binding, IC50 values were determined. […] The IC50 value was determined graphically from a log-logit plot of the data. The Ki values were determined by application of the Cheng-Prusoff equivuation to the IC50 values, the labeled ligand concentration and the Kd of the labeled ligand.

[4] = CV-1 cells, percent maximal inhibition, DHT at its EC50
[5] = CV-1 cells, percent maximal response relative to reference agonist DHT

Compound | AR Antagonist CV-1 Cells Efficacy (%) (human AR [1]) | EC50 (human AR [2]; CV-1 cells) [nM] | AR Antagonist CV-1 Cells Efficacy (%) (human AR [1]; [4]) | IC50 (human AR [1]) [nM] | Ki (human AR [3]) [nM] | AR Agonist CV-1 Cells Efficacy (%) (human AR [2]; [5]) | IC50 (human AR [1]; CV-1 cells, antagonist potency IC50, DHT at its EC50) [nM] | AR Agonist CV-1 Cells Efficacy (%) (human AR [2])
O=c1cc(C(F)(F)F)c2ccc(NCC(F)(F)C(F)(F)F)cc2[nH]1 [Compound 520, 7-(2,2,3,3,3-Pentafluoropropyl)amino-4-trifluoromethyl-2(1H)-quinolinone] | 76% | – | – | – | – | – | – | –
Nc1cc2[nH]c(=O)cc(C(F)(F)F)c2cc1OCC(F)(F)F [Compound 571, 7-Amino-6-(2,2,2-trifluoroethoxy)-4-trifluoromethyl-2(1H)-quinolinone] | – | > 10000 | 69% | 14 | 71 | – | – | –
C=CCN(CC1CC1)c1ccc2[nH]c(=O)cc(C(F)(F)F)c2c1 [Compound 285, 6-(N-Allyl-N-cyclopropylmethyl)amino-4-trifluoromethyl-2(1H)-quinolinone] | – | 1 | na (na = not active (i.e. efficacy of <20 and potency of >10,000)) | > 10000 | 6.2 | 111 | – | –
CCC(C)c1cc2c(C(F)(F)F)cc(=O)[nH]c2cc1N (stereo not shown) [Compound 581, 7-Amino-6-sec-butyl-4-trifluoromethyl-2(1H)-quinolinone] | – | – | 23% | – | – | 39 | – | –
CC1OC(=O)Nc2ccc(C3=CCCCC3)cc21 (racemic) [Compound 698, (±)-6-(1-Cyclohexenyl)-1,4-dihydro-4-methyl-1,3-benzo[d]oxazin-2-one] | – | > 10000 | 84% | 17 | 32 | – | – | –
4-Methyl-6-(2,4-dichlorolphenyl)-2(1H)-quinolinone [Compound 762] | – | > 10000 | 81% | – | – | – | 63 | –
O=c1cc(C(F)(F)F)c2cc(C3=CCCCC3)ccc2[nH]1 [Compound 630, 6-Cyclohexenyl-4-trifluoromethyl-2(1H)-quinolinone] | – | 221 | 67% | 13 | 109 | 30 | – | –
CC(C)CN(CC(C)C)c1ccc2[nH]c(=O)cc(C(F)(F)F)c2c1 [Compound 221, 6-Diisobutylamino-4-trifluoromethyl-2(1H)-quinolinone] | – | 23 | na (na = not active (i.e. efficacy of <20 and potency of >10,000)) | > 10000 | 147 | 114 | – | –
O=C(Nc1ccc2c(C(F)(F)F)cc(=O)[nH]c2c1)C(F)(F)F [Compound 528, 7-(Trifluoroacetamido)-4-trifluoromethyl-2(1H)-quinolinone] | – | 1300 | 59% | 26 | – | 36 | – | –
O=c1cc(C(F)(F)F)c2cc(C3CCCCC3)ccc2[nH]1 [Compound 616, 6-Cyclohexyl-4-trifluoromethyl-2(1H)-quinolinone] | – | > 10000 | 92% | 17 | 15 | – | – | –
CCCNc1ccc2c(C(F)(F)F)cc(=O)[nH]c2c1 [Compound 513, 7-Propylamino-4-trifluoromethyl-2(1H)-quinolinone] | 84% | – | – | – | – | – | – | –
CCCCN(CCCC)c1ccc2[nH]c(=O)cc(C(F)(F)F)c2c1 [Compound 220, 6-Dibutylamino-4-trifluoromethyl-2(1H)-quinolinone] | 54% | – | – | – | – | – | – | 68
Nc1cc2[nH]c(=O)cc(C(F)(F)F)c2cc1C1CCCCC1 [Compound 582, 7-Amino-6-cyclohexyl-4-trifluoromethyl-2(1H)-quinolinone] | – | > 10000 | 92% | 26 | 43 | – | – | –
Cn1c(=O)cc(C(F)(F)F)c2ccc(NCC(F)(F)F)cc21 [Compound 532, 1-Methyl-7-(2,2,2-trifluoromethyl)amino-4-trifluoromethyl-2(1H)-quinolinone] | – | > 10000 | 85% | 73 | 159 | – | – | –
O=c1cc(C(F)(F)F)c2cc(N3CCCC[C@H]3CCl)ccc2[nH]1 [Compound 432, (+)S-6-(2-Chloromethyl-1-piperidino)-4-trifluoromethyl-2(1H)-quinolinone] | – | 8 | na (na = not active (i.e. efficacy of <20 and potency of >10,000)) | > 10000 | 32 | 96 | – | –
Cc1cc(=O)[nH]c2ccc(N(CC(C)C)CC(F)(F)F)cc12 [Compound 381, 6-(N-Isobutyl-N-2,2,2-trifluoroethyl)amino-4-methyl-2(1H)-quinolinone] | – | – | na (na = not active (i.e. efficacy of <20 and potency of >10,000)) | – | – | 72 | – | –
CC(C)CN(c1ccc2[nH]c(=O)cc(C(F)(F)F)c2c1)C(C)C(F)(F)F (racemic) [Compound 290, (±)-6-(N-Isobutyl-N-2,2,2-trifluoroisopropyl)amino-4-trifluoromethyl-2(1H)-quinolinone] | – | 32 | 50% | 50 | > 1000 | 37 | – | –
O=c1cc(C(F)(F)F)c2cc(N3CCCCC3CCOCc3ccc(C(F)(F)F)cc3)ccc2[nH]1 (racemic) [Compound 449, (±)-6-(2-(4-Trifluoromethyl)benzyloxyethyl-1-piperidino)-4-trifluoromethyl-2(1H)-quinolinone] | – | 16 | na (na = not active (i.e. efficacy of <20 and potency of >10,000)) | > 10000 | 8.4 | 83 | – | –
O=c1cc(C(F)(F)F)c2cc(-c3ccccc3)ccc2[nH]1 [Compound 764, 4-Trifluoromethyl-6-phenyl-2(1H)-quinolinone] | – | > 10000 | 87% | 30 | 16 | – | – | –
CC1(C)CC2CC(C)(CN2c2ccc3[nH]c(=O)cc(C(F)(F)F)c3c2)C1 (racemic) [Compound 350, (±)-6-(1,3,3-Trimethyl-6-azabicyclo[3.2.1]octanyl-6-)-4-trifluoromethyl-2(1H)-quinolinone] | – | 29 | na (na = not active (i.e. efficacy of <20 and potency of >10,000)) | > 10000 | 165 | 73 | – | –
O=c1cc(C(F)(F)F)c2cc(C(O)(c3ccccc3)c3ccccc3)ccc2[nH]1 [Compound 659, 6-(1-Hydroxy-1,1-diphenyl)methyl-4-trifluoromethyl-2(1H)-quinolinone] | – | > 10000 | 70% | 44 | 40 | – | – | –
CC(C)Nc1ccc2c(C(F)(F)F)cc(=O)[nH]c2c1 [Compound 514, 7-Isopropylamino-4-trifluoromethyl-2(1H)-quinolinone] | 87% | – | – | – | – | – | – | –
O=c1cc(C(F)(F)F)c2ccc(NCC(F)(F)F)cc2[nH]1 [Compound 523, 7-(N-2,2,2-Trifluoroethyl)amino-4-trifluoromethyl-2(1H)-quinolinone] | 62% | – | – | – | – | – | – | 29
CCN(c1ccc2[nH]c(=O)cc(C(F)(F)F)c2c1)C(C)C [Compound 239, 6-(N-Ethyl-N-isopropyl)amino-4-trifluoromethyl-2(1H)-quinolinone] | na (key: na = not active (i.e. efficacy of <20 and potency of >10,000)) | – | – | – | – | – | – | 83
Cc1cc(=O)[nH]c2ccc(N(CC(F)(F)F)CC(F)(F)F)cc12 [Compound 377, 6-(bis-2,2,2-Trifluoroethyl)amino-4-methyl-2(1H)-quinolinone] | na (key: na = not active (i.e. efficacy of <20 and potency of >10,000)) | – | – | – | – | – | – | 89
C=CC(C)(C)Nc1ccc2c(C(F)(F)F)cc(=O)[nH]c2c1 [Compound 559, 7-(1,1-Dimethylallyl)amino-4-trifluoromethyl-2(1H)-quinolinone] | 92% | – | – | – | – | – | – | –
CCCNc1ccc2[nH]c(=O)cc(C(F)(F)F)c2c1 [Compound 204, 6-Propylamino-4-trifluoromethyl-2(1H)-quinolinone] | 72% | – | – | – | – | – | – | 34
